{"source": "patent US4175125A", "about": "“Method for treating methicillin resistant staphylococcus aureus” (Eli Lilly and Company, priority 1978, dated 1979)", "type_in_all_cases": "cell-based", "key": {"[1]": {"tested_on": "Staphylococcus aureus cultures", "assay": "Agar dilution susceptibility test, phenylthioacetyl cephalosporins vs methicillin resistant S. aureus (Example 9)", "details": "Staphylococcus aureus, read-out: MIC", "method_in_brief": "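Agar dilution MIC, μg/mL, against Staphylococcus aureus isolates, inocula diluted to 10^3 bacteria per spot. Panel: penicillin-sensitive 3055 and penicillin-resistant H232 controls, methicillin-resistant clinical isolates, and laboratory-selected mutant 3136.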"}, "[2]": {"tested_on": "Staphylococcus aureus cultures", "assay": "Broth dilution MIC in trypticase soy broth, low and high NaCl (Example 10)", "details": "Staphylococcus aureus, TSB, read-out: MIC", "method_in_brief": "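MIC by broth dilution, in µg/ml, against Staphylococcus aureus cultures grown in trypticase soy broth containing either 0.5 percent or 5.0 percent NaCl. The high-salt condition serves to distinguish methicillin-resistant cultures.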"}, "[3]": {"tested_on": "Staphylococcus aureus cultures", "assay": "Agar dilution MIC, Example 13 compound vs methicillin resistant Staphylococcus aureus", "details": "read-out: MIC", "from_the_text": "The table which follows gives the minimum inhibitory concentration (MIC) in micrograms of compound per milliliter of culture (μg/ml), in comparison with similar MIC values for the known antibiotics methicillin, cephalothin and cephaloridine against the same strains of bacteria."}, "[4]": {"details": "culture 3131, table part marked b"}, "[5]": {"details": "culture 3131, table part marked c"}, "[6]": {"details": "culture 3135, table part marked b"}, "[7]": {"details": "culture 3135, table part marked c"}, "[8]": {"details": "culture 3136, table part marked b"}, "[9]": {"details": "culture 3136, table part marked c"}, "[10]": {"details": "culture 3137, table part marked b"}, "[11]": {"details": "culture 3137, table part marked c"}, "[12]": {"details": "culture 3138, table part marked b"}, "[13]": {"details": "culture 3138, table part marked c"}, "[14]": {"details": "culture 3139, table part marked b"}, "[15]": {"details": "culture 3139, table part marked c"}, "[16]": {"details": "culture (Seattle) 966, table part marked b"}, "[17]": {"details": "culture (Seattle) 966, table part marked c"}, "[18]": {"details": "culture S61, table part marked b"}, "[19]": {"details": "culture S61, table part marked c"}}, "data": [{"compound": "O=C(Cc1cccs1)N[C@@H]1C(=O)N2C(C(=O)[O-])=C(C[n+]3ccccc3)CS[C@H]12", "note": "[Cephaloridine, cephaloridine, reference compound]", "values": [{"measurement": "MIC", "setting": "[1]; culture 3055 (control, benzylpenicillin sensitive), table part marked b", "value": "< 0.06", "unit": "µg/mL"}, {"measurement": "MIC", "setting": "[1]; culture 3055 (control, benzylpenicillin sensitive), table part marked c", "value": 0.25, "unit": "µg/mL"}, {"measurement": "MIC", "setting": "[1]; culture 3130, table part marked b", "value": 4, "unit": "µg/mL"}, {"measurement": "MIC", "setting": "[1]; culture 3130, table part marked c", "value": 8, "unit": "µg/mL"}, {"measurement": "MIC", "setting": "[1]; [4]", "value": 1, "unit": "µg/mL"}, {"measurement": "MIC", "setting": "[1]; [5]", "value": 16, "unit": "µg/mL"}, {"measurement": "MIC", "setting": "[1]; culture 3132, table part marked b", "value": 2, "unit": "µg/mL"}, {"measurement": "MIC", "setting": "[1]; culture 3132, table part marked c", "value": 2, "unit": "µg/mL"}, {"measurement": "MIC", "setting": "[1]; culture 3133, table part marked b", "value": 4, "unit": "µg/mL"}, {"measurement": "MIC", "setting": "[1]; culture 3133, table part marked c", "value": 16, "unit": "µg/mL"}, {"measurement": "MIC", "setting": "[1]; culture 3134, table part marked b", "value": 8, "unit": "µg/mL"}, {"measurement": "MIC", "setting": "[1]; culture 3134, table part marked c", "value": 16, "unit": "µg/mL"}, {"measurement": "MIC", "setting": "[1]; [6]", "value": 1, "unit": "µg/mL"}, {"measurement": "MIC", "setting": "[1]; [7]", "value": 8, "unit": "µg/mL"}, {"measurement": "MIC", "setting": "[1]; [8]", "value": 0.25, "unit": "µg/mL"}, {"measurement": "MIC", "setting": "[1]; [9]", "value": 16, "unit": "µg/mL"}, {"measurement": "MIC", "setting": "[1]; [10]", "value": 8, "unit": "µg/mL"}, {"measurement": "MIC", "setting": "[1]; [11]", "value": 32, "unit": "µg/mL"}, {"measurement": "MIC", "setting": "[1]; [12]", "value": 8, "unit": "µg/mL"}, {"measurement": "MIC", "setting": "[1]; [13]", "value": 16, "unit": "µg/mL"}, {"measurement": "MIC", "setting": "[1]; [14]", "value": 1, "unit": "µg/mL"}, {"measurement": "MIC", "setting": "[1]; [15]", "value": 4, "unit": "µg/mL"}, {"measurement": "MIC", "setting": "[1]; [16]", "value": 0.25, "unit": "µg/mL"}, {"measurement": "MIC", "setting": "[1]; [17]", "value": 0.25, "unit": "µg/mL"}, {"measurement": "MIC", "setting": "[1]; culture H232 (control, benzylpenicillin-resistant), table part marked b", "value": "< 0.06", "unit": "µg/mL"}, {"measurement": "MIC", "setting": "[1]; culture H232 (control, benzylpenicillin-resistant), table part marked c", "value": "< 0.06", "unit": "µg/mL"}, {"measurement": "MIC", "setting": "[1]; culture Kavarmark 1138501, table part marked b", "value": 1, "unit": "µg/mL"}, {"measurement": "MIC", "setting": "[1]; culture Kavarmark 1138501, table part marked c", "value": 4, "unit": "µg/mL"}, {"measurement": "MIC", "setting": "[1]; [18]", "value": 4, "unit": "µg/mL"}, {"measurement": "MIC", "setting": "[1]; [19]", "value": 16, "unit": "µg/mL"}, {"measurement": "MIC", "setting": "[2]; [4]", "value": 2, "unit": "µg/mL"}, {"measurement": "MIC", "setting": "[2]; [5]", "value": 16, "unit": "µg/mL"}, {"measurement": "MIC", "setting": "[2]; culture 3132 (first column so headed), table part marked b", "value": 2, "unit": "µg/mL"}, {"measurement": "MIC", "setting": "[2]; culture 3132 (first column so headed), table part marked c", "value": 16, "unit": "µg/mL"}, {"measurement": "MIC", "setting": "[2]; culture 3132 (second column so headed), table part marked b", "value": 1, "unit": "µg/mL"}, {"measurement": "MIC", "setting": "[2]; culture 3132 (second column so headed), table part marked c", "value": 16, "unit": "µg/mL"}, {"measurement": "MIC", "setting": "[2]; [6]", "value": 2, "unit": "µg/mL"}, {"measurement": "MIC", "setting": "[2]; [7]", "value": 16, "unit": "µg/mL"}, {"measurement": "MIC", "setting": "[2]; [8]", "value": "< 0.5", "unit": "µg/mL"}, {"measurement": "MIC", "setting": "[2]; [9]", "value": 16, "unit": "µg/mL"}, {"measurement": "MIC", "setting": "[2]; [10]", "value": 8, "unit": "µg/mL"}, {"measurement": "MIC", "setting": "[2]; [11]", "value": 32, "unit": "µg/mL"}, {"measurement": "MIC", "setting": "[2]; [12]", "value": 4, "unit": "µg/mL"}, {"measurement": "MIC", "setting": "[2]; [13]", "value": 16, "unit": "µg/mL"}, {"measurement": "MIC", "setting": "[2]; [14]", "value": 1, "unit": "µg/mL"}, {"measurement": "MIC", "setting": "[2]; [15]", "value": 8, "unit": "µg/mL"}, {"measurement": "MIC", "setting": "[2]; [16]", "value": 4, "unit": "µg/mL"}, {"measurement": "MIC", "setting": "[2]; [17]", "value": 8, "unit": "µg/mL"}, {"measurement": "MIC", "setting": "[2]; culture Kavarnick 1138501, table part marked b", "value": 2, "unit": "µg/mL"}, {"measurement": "MIC", "setting": "[2]; culture Kavarnick 1138501, table part marked c", "value": 16, "unit": "µg/mL"}, {"measurement": "MIC", "setting": "[2]; [18]", "value": 4, "unit": "µg/mL"}, {"measurement": "MIC", "setting": "[2]; [19]", "value": 64, "unit": "µg/mL"}, {"measurement": "MIC", "setting": "[2]; culture S, table part marked b", "value": 4, "unit": "µg/mL"}, {"measurement": "MIC", "setting": "[2]; culture S, table part marked c", "value": 16, "unit": "µg/mL"}, {"measurement": "MIC", "setting": "[3]; culture 3055 (control), Trypticase Soy Agar with 4.5% NaCl added (5% NaCl)", "value": 0.13, "unit": "µg/mL"}, {"measurement": "MIC", "setting": "[3]; culture 3055 (control), Trypticase Soy Agar, 0.5% NaCl", "value": 0.03, "unit": "µg/mL"}, {"measurement": "MIC", "setting": "[3]; culture 3130, Trypticase Soy Agar with 4.5% NaCl added (5% NaCl)", "value": 1, "unit": "µg/mL"}, {"measurement": "MIC", "setting": "[3]; culture 3130, Trypticase Soy Agar, 0.5% NaCl", "value": 0.5, "unit": "µg/mL"}, {"measurement": "MIC", "setting": "[3]; culture 3131, Trypticase Soy Agar with 4.5% NaCl added (5% NaCl)", "value": 1, "unit": "µg/mL"}, {"measurement": "MIC", "setting": "[3]; culture 3131, Trypticase Soy Agar, 0.5% NaCl", "value": 0.5, "unit": "µg/mL"}, {"measurement": "MIC", "setting": "[3]; culture 3132, Trypticase Soy Agar with 4.5% NaCl added (5% NaCl)", "value": 0.5, "unit": "µg/mL"}, {"measurement": "MIC", "setting": "[3]; culture 3132, Trypticase Soy Agar, 0.5% NaCl", "value": 0.25, "unit": "µg/mL"}, {"measurement": "MIC", "setting": "[3]; culture 3133, Trypticase Soy Agar with 4.5% NaCl added (5% NaCl)", "value": 0.25, "unit": "µg/mL"}, {"measurement": "MIC", "setting": "[3]; culture 3133, Trypticase Soy Agar, 0.5% NaCl", "value": 0.13, "unit": "µg/mL"}, {"measurement": "MIC", "setting": "[3]; culture 3134, Trypticase Soy Agar with 4.5% NaCl added (5% NaCl)", "value": 1, "unit": "µg/mL"}, {"measurement": "MIC", "setting": "[3]; culture 3134, Trypticase Soy Agar, 0.5% NaCl", "value": 1, "unit": "µg/mL"}, {"measurement": "MIC", "setting": "[3]; culture 3135, Trypticase Soy Agar with 4.5% NaCl added (5% NaCl)", "value": 4, "unit": "µg/mL"}, {"measurement": "MIC", "setting": "[3]; culture 3135, Trypticase Soy Agar, 0.5% NaCl", "value": 0.5, "unit": "µg/mL"}, {"measurement": "MIC", "setting": "[3]; culture 3136, Trypticase Soy Agar with 4.5% NaCl added (5% NaCl)", "value": 4, "unit": "µg/mL"}, {"measurement": "MIC", "setting": "[3]; culture 3136, Trypticase Soy Agar, 0.5% NaCl", "value": 0.13, "unit": "µg/mL"}, {"measurement": "MIC", "setting": "[3]; culture 3137, Trypticase Soy Agar with 4.5% NaCl added (5% NaCl)", "value": 4, "unit": "µg/mL"}, {"measurement": "MIC", "setting": "[3]; culture 3137, Trypticase Soy Agar, 0.5% NaCl", "value": 4, "unit": "µg/mL"}, {"measurement": "MIC", "setting": "[3]; culture 3138, Trypticase Soy Agar with 4.5% NaCl added (5% NaCl)", "value": 4, "unit": "µg/mL"}, {"measurement": "MIC", "setting": "[3]; culture 3138, Trypticase Soy Agar, 0.5% NaCl", "value": 1, "unit": "µg/mL"}, {"measurement": "MIC", "setting": "[3]; culture 3139, Trypticase Soy Agar with 4.5% NaCl added (5% NaCl)", "value": 0.13, "unit": "µg/mL"}, {"measurement": "MIC", "setting": "[3]; culture 3139, Trypticase Soy Agar, 0.5% NaCl", "value": 0.5, "unit": "µg/mL"}, {"measurement": "MIC", "setting": "[3]; culture H232 (control), Trypticase Soy Agar with 4.5% NaCl added (5% NaCl)", "value": 0.13, "unit": "µg/mL"}, {"measurement": "MIC", "setting": "[3]; culture H232 (control), Trypticase Soy Agar, 0.5% NaCl", "value": 0.06, "unit": "µg/mL"}, {"measurement": "MIC", "setting": "[3]; culture Havarmak 1136501, Trypticase Soy Agar with 4.5% NaCl added (5% NaCl)", "value": 8, "unit": "µg/mL"}, {"measurement": "MIC", "setting": "[3]; culture Havarmak 1136501, Trypticase Soy Agar, 0.5% NaCl", "value": 1, "unit": "µg/mL"}, {"measurement": "MIC", "setting": "[3]; culture S 61, Trypticase Soy Agar with 4.5% NaCl added (5% NaCl)", "value": 1, "unit": "µg/mL"}, {"measurement": "MIC", "setting": "[3]; culture S 61, Trypticase Soy Agar, 0.5% NaCl", "value": 1, "unit": "µg/mL"}, {"measurement": "MIC", "setting": "[3]; culture Seattle 966, Trypticase Soy Agar with 4.5% NaCl added (5% NaCl)", "value": 0.13, "unit": "µg/mL"}, {"measurement": "MIC", "setting": "[3]; culture Seattle 966, Trypticase Soy Agar, 0.5% NaCl", "value": 0.5, "unit": "µg/mL"}]}]}
